Experimental data taken from article PMC12439480, “Dimeric CCK2R radiotheranostic tracers synergize with mTOR inhibition for enhanced tumor therapy” (Theranostics, 2025).
Numbered stars: 1 amine (or outer) side, 2 acyl side, 3 side chain; on linkers, the order of the positions; unused ones are H or OH. Square brackets hold non-standard residues; d marks the D form. Side chains are listed from the residue outwards. Peptide text beside a SMILES is read from it. * marks the point of attachment. DOTA = O=C(O)CN1CCN(CC(=O)O)CCN(CC(=O)*)CCN(CC(=O)O)CC1; d(γGlu) = O=C(O)[C@@H](CCC(=O)[*:2])N[*:1]; 1Nal = N[C@@H](Cc1cccc2ccccc12)C(=O)O; NMeNle = CCCC[C@H](NC)C(=O)O; PEG4 = NCCOCCOCCOCCOCCC(=O)O

Experiment: Ex vivo biodistribution of 177Lu-labeled compound
Set-up: species or system BALB/c nude mice
Conditions: mouse, in vivo
Experimental: To evaluate the biodistribution of [^177Lu]Lu-DOTA-CCK2R-dimer, AR42J tumor-bearing mice received intravenous (i.v.) injections of 3.7 MBq (≈ 120 pmol) of [^177Lu]Lu-DOTA-CCK2R-dimer (dissolved in 200 μL of saline; n = 3/group), and Mice were sacrificed at 1, 4, 24, 48, 72, and 96 h post-injection. The tissues of interest were excised, weighed, and analyzed for radioactivity using a γ-counter.
All animal studies were approved by the Ethics Committee of Fudan University Shanghai Cancer Center (No. FUSCC-IACUC- S2023- 0003). Five-week-old female BALB/c nude mice were purchased from Shanghai SLAC Laboratory Animal
Company. To establish cell-derived xenograft (CDX) models, 1 × 10⁶ AR42J cells (100 μL) were subcutaneously inoculated into the right shoulder of each mouse. […]
Radioactivity levels were measured using a gamma counter, with decay correction applied based on the injection time. The percentage of injected dose per gram of tissue (%ID/g) was calculated for each time point. […]

CCCC[C@@H](C(=O)N[C@@H](CC(=O)O)C(=O)N[C@@H](Cc1cccc2ccccc12)C(N)=O)N(C)C(=O)[C@H](Cc1c[nH]c2ccccc12)NC(=O)CCOCCOCCOCCOCCNC(=O)CC[C@@H](NC(=O)CC[C@H](NC(=O)CN1CCN(CC(=O)O)CCN(CC(=O)O)CCN(CC(=O)O)CC1)C(=O)N[C@H](CCC(=O)NCCOCCOCCOCCOCCC(=O)N[C@@H](Cc1c[nH]c2ccccc12)C(=O)N(C)[C@@H](CCCC)C(=O)N[C@@H](CC(=O)O)C(=O)N[C@@H](Cc1cccc2ccccc12)C(N)=O)C(=O)O)C(=O)O [[177Lu]Lu-DOTA-CCK2R-dimer, metal not drawn] ({DOTA}-E([d(γGlu)-PEG4-Trp-NMeNle-Asp-1Nal-NH2])[d(γGlu)][PEG4]W[NMeNle]D[1Nal]-NH2)
tissue uptake at 48 h (Bladder uptake): 0.03 ± 0.01 %ID/g
tissue uptake at 72 h (Bladder uptake): 0.06 ± 0.03 %ID/g
tissue uptake at 96 h (Bladder uptake): 0.1 ± 0.05 %ID/g
tissue uptake at 1 h (Blood uptake): 6.93 ± 1.84 %ID/g
tissue uptake at 4 h (Blood uptake): 1.19 ± 0.3 %ID/g
tissue uptake at 24 h (Blood uptake): 0.05 ± 0.01 %ID/g
tissue uptake at 48 h (Blood uptake): 0.02 ± 0.01 %ID/g
tissue uptake at 72 h (Blood uptake): 0.002 ± 0.0005 %ID/g
tissue uptake at 96 h (Blood uptake): 0.008 ± 0.007 %ID/g
tissue uptake at 1 h (Bone uptake): 0.65 ± 0.27 %ID/g
tissue uptake at 4 h (Bone uptake): 0.35 ± 0.19 %ID/g
tissue uptake at 24 h (Bone uptake): 0.04 ± 0.02 %ID/g
tissue uptake at 48 h (Bone uptake): 0.004 ± 0.001 %ID/g
tissue uptake at 72 h (Bone uptake): 0.03 ± 0.02 %ID/g
tissue uptake at 96 h (Bone uptake): 0.02 ± 0.01 %ID/g
tissue uptake at 1 h (Brain uptake): 0.14 ± 0.01 %ID/g
tissue uptake at 4 h (Brain uptake): 0.03 ± 0.01 %ID/g
tissue uptake at 24 h (Brain uptake): 0.003 ± 0.002 %ID/g
tissue uptake at 48 h (Brain uptake): 0.003 ± 0.002 %ID/g
tissue uptake at 72 h (Brain uptake): 0.004 ± 0.003 %ID/g
tissue uptake at 96 h (Brain uptake): 0.006 ± 0.002 %ID/g
tissue uptake at 1 h (Heart uptake): 1.29 ± 0.41 %ID/g
tissue uptake at 4 h (Heart uptake): 0.67 ± 0.34 %ID/g
tissue uptake at 24 h (Heart uptake): 0.05 ± 0.03 %ID/g
tissue uptake at 48 h (Heart uptake): 0.02 ± 0.02 %ID/g
tissue uptake at 72 h (Heart uptake): 0.02 ± 0.008 %ID/g
tissue uptake at 96 h (Heart uptake): 0.03 ± 0.01 %ID/g
tissue uptake at 1 h (Kidney uptake): 8.92 ± 1.05 %ID/g
tissue uptake at 4 h (Kidney uptake): 6.79 ± 1.58 %ID/g
tissue uptake at 24 h (Kidney uptake): 3.43 ± 0.84 %ID/g
tissue uptake at 48 h (Kidney uptake): 1.59 ± 1 %ID/g
tissue uptake at 72 h (Kidney uptake): 1.6 ± 0.39 %ID/g
tissue uptake at 96 h (Kidney uptake): 1 ± 0.5 %ID/g
tissue uptake at 1 h (Large intestine uptake): 1.14 ± 0.38 %ID/g
tissue uptake at 4 h (Large intestine uptake): 0.61 ± 0.03 %ID/g
tissue uptake at 24 h (Large intestine uptake): 0.07 ± 0.01 %ID/g
tissue uptake at 48 h (Large intestine uptake): 0.05 ± 0.02 %ID/g
tissue uptake at 72 h (Large intestine uptake): 0.04 ± 0.03 %ID/g
tissue uptake at 96 h (Large intestine uptake): 0.05 ± 0.03 %ID/g
tissue uptake at 1 h (Liver uptake): 4.44 ± 1.8 %ID/g
tissue uptake at 4 h (Liver uptake): 3.42 ± 0.75 %ID/g
tissue uptake at 24 h (Liver uptake): 0.61 ± 0.11 %ID/g
tissue uptake at 48 h (Liver uptake): 0.58 ± 0.16 %ID/g
tissue uptake at 72 h (Liver uptake): 0.37 ± 0.05 %ID/g
tissue uptake at 96 h (Liver uptake): 0.42 ± 0.11 %ID/g
tissue uptake at 1 h (Lung uptake): 2.4 ± 0.05 %ID/g
tissue uptake at 4 h (Lung uptake): 1.06 ± 0.39 %ID/g
tissue uptake at 24 h (Lung uptake): 0.04 ± 0.03 %ID/g
tissue uptake at 48 h (Lung uptake): 0.02 ± 0.01 %ID/g
tissue uptake at 72 h (Lung uptake): 0.01 ± 0.01 %ID/g
tissue uptake at 96 h (Lung uptake): 0.02 ± 0.005 %ID/g
tissue uptake at 1 h (Muscle uptake): 0.36 ± 0.1 %ID/g
tissue uptake at 4 h (Muscle uptake): 0.16 ± 0.17 %ID/g
tissue uptake at 24 h (Muscle uptake): 0.01 ± 0.01 %ID/g
tissue uptake at 48 h (Muscle uptake): 0.007 ± 0.003 %ID/g
tissue uptake at 72 h (Muscle uptake): 0.007 ± 0.002 %ID/g
tissue uptake at 96 h (Muscle uptake): 0.006 ± 0.004 %ID/g
tissue uptake at 1 h (Small intestine uptake): 1.45 ± 0.39 %ID/g
tissue uptake at 4 h (Small intestine uptake): 0.58 ± 0.31 %ID/g
tissue uptake at 24 h (Small intestine uptake): 0.06 ± 0.04 %ID/g
tissue uptake at 48 h (Small intestine uptake): 0.06 ± 0.01 %ID/g
tissue uptake at 72 h (Small intestine uptake): 0.02 ± 0.01 %ID/g
tissue uptake at 96 h (Small intestine uptake): 0.04 ± 0.03 %ID/g
tissue uptake at 1 h (Spleen uptake): 2.62 ± 1.02 %ID/g
tissue uptake at 4 h (Spleen uptake): 2.23 ± 0.32 %ID/g
tissue uptake at 24 h (Spleen uptake): 0.15 ± 0.08 %ID/g
tissue uptake at 48 h (Spleen uptake): 0.02 ± 0.01 %ID/g
tissue uptake at 72 h (Spleen uptake): 0.05 ± 0.03 %ID/g
tissue uptake at 96 h (Spleen uptake): 0.15 ± 0.09 %ID/g
tissue uptake at 1 h (Stomach uptake): 3.88 ± 0.66 %ID/g
tissue uptake at 4 h (Stomach uptake): 3.05 ± 0.6 %ID/g
tissue uptake at 24 h (Stomach uptake): 1.07 ± 0.28 %ID/g
tissue uptake at 48 h (Stomach uptake): 1.04 ± 0.17 %ID/g
tissue uptake at 72 h (Stomach uptake): 0.26 ± 0.11 %ID/g
tissue uptake at 96 h (Stomach uptake): 0.24 ± 0.3 %ID/g
tissue uptake at 1 h (Tumor uptake): 19.2 ± 8.43 %ID/g
tissue uptake at 4 h (Tumor uptake): 14.7 ± 2.83 %ID/g
tissue uptake at 24 h (Tumor uptake): 6.12 ± 1.45 %ID/g
tissue uptake at 48 h (Tumor uptake): 4.32 ± 0.75 %ID/g
tissue uptake at 72 h (Tumor uptake): 2.01 ± 0.47 %ID/g
tissue uptake at 96 h (Tumor uptake): 1.1 ± 0.04 %ID/g
